Patent publication US20250171426A1, “PYRIMIDINEDIONE-BASED COMPOUNDS AS AXL, C-MET, AND MER INHIBITORS AND METHODS OF USE THEREOF” (CMG Pharmaceutical Co., Ltd., priority 2022, published 2025)

How the values were obtained:
Format in all cases: biochemical
Conditions in all cases: 10 μM ATP, 60 min, ADP-GLO luminescence
c-MET = c-MET (Homo sapiens, UniProt P08581); assay: Enzymatic assay (ADP-Glo kinase reaction), c-MET
Procedure: (§1) All the kinase reactions were performed in 5 μL using tyrosine kinase buffer with 0.2 μg/μL poly (Glu4, Tyr1) substrate, 10 μM ATP, serial dilution of the inhibitor, and incubated at room temperature for 60 min. After the indicated incubation times, 5 μL ADP-GLO™ reagent (Promega, Madison, WI) was added to the reactions and the plate was incubated at room temperature for 40 min. […] All 384-well assay plates were read using a GLOMAX™ Discover Microplate Luminometer from Promega (Madison, WI). To plot, analyze the data and calculate all kinase reaction biochemical values, both Microsoft Excel and Prism from GraphPad 7 Software (La Jolla, CA) were used.

AXL = biological target: T1, AXL (Homo sapiens, UniProt P30530); assay: Enzymatic assay (ADP-Glo kinase reaction), AXL
T1 sequence (P30530 26-894): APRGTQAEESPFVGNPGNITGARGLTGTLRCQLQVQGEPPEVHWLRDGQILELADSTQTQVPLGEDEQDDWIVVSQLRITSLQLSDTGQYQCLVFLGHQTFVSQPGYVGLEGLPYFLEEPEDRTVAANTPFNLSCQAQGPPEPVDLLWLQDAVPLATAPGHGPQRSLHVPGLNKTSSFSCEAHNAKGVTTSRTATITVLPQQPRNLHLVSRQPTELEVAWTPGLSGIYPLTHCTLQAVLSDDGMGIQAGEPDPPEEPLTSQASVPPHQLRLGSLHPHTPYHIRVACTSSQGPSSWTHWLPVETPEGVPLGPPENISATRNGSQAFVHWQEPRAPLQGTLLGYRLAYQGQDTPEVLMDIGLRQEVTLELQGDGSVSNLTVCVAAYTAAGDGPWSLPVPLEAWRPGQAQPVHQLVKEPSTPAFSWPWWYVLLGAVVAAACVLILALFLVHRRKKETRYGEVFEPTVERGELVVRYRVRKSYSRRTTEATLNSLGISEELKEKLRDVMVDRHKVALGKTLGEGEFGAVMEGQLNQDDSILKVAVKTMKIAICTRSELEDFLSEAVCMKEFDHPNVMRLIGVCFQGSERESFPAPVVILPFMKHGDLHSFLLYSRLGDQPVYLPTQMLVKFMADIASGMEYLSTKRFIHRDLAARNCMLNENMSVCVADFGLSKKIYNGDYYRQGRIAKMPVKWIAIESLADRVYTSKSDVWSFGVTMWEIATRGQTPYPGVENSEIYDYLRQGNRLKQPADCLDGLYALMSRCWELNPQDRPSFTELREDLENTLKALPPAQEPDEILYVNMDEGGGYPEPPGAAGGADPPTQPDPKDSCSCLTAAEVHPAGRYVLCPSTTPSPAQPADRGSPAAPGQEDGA
Procedure: as §1

MER = biological target: T2, MER (Homo sapiens, UniProt Q12866); assay: Enzymatic assay (ADP-Glo kinase reaction), MER
T2 sequence (Q12866 21-999): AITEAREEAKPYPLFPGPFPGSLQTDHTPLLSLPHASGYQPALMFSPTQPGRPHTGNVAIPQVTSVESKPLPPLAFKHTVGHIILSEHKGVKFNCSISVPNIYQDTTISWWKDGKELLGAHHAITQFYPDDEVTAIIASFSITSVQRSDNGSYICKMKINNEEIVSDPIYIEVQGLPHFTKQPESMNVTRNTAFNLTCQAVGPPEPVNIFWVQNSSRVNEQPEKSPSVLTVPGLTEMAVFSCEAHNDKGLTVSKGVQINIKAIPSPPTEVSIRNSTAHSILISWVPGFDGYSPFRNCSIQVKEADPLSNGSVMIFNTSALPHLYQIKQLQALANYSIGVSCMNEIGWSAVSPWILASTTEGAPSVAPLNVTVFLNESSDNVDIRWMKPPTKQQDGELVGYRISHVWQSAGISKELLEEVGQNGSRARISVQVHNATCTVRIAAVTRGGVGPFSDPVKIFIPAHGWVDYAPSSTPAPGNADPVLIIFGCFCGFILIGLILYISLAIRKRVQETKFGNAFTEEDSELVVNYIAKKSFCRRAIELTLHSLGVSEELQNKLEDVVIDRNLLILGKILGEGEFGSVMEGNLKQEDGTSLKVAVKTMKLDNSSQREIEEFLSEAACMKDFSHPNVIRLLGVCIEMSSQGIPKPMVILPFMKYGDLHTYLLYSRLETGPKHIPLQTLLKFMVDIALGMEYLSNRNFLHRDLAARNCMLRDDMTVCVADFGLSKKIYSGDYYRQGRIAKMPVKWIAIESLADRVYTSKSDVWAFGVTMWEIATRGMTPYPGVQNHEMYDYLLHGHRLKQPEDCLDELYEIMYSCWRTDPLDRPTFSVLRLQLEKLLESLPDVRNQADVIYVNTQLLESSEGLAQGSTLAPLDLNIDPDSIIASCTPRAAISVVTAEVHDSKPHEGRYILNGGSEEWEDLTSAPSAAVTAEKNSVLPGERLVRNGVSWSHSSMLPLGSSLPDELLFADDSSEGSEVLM
Procedure: (§2) All the kinase reactions were performed in 5 μL using tyrosine kinase buffer with 0.2 μg/μL poly (Glu4, Tyr1) substrate, 10 μM ATP, serial dilution of the inhibitor, and incubated at room temperature for 60 min. After the indicated incubation times, 5 μL ADP-GLO™ reagent (Promega, Madison, WI) was added to the reactions and the plate was incubated at room temperature for 40 min. Then, 10 μL of kinase detection reagent was added and after an incubation time of 40 min, luminescence was recorded and IC50 values were determined (Table 1). All 384-well assay plates were read using a GLOMAX™ Discover Microplate Luminometer from Promega (Madison, WI). To plot, analyze the data and calculate all kinase reaction biochemical values, both Microsoft Excel and Prism from GraphPad 7 Software (La Jolla, CA) were used.
as §2, with “3).” for “1).”

Chain of c-MET (P08581 25-1390): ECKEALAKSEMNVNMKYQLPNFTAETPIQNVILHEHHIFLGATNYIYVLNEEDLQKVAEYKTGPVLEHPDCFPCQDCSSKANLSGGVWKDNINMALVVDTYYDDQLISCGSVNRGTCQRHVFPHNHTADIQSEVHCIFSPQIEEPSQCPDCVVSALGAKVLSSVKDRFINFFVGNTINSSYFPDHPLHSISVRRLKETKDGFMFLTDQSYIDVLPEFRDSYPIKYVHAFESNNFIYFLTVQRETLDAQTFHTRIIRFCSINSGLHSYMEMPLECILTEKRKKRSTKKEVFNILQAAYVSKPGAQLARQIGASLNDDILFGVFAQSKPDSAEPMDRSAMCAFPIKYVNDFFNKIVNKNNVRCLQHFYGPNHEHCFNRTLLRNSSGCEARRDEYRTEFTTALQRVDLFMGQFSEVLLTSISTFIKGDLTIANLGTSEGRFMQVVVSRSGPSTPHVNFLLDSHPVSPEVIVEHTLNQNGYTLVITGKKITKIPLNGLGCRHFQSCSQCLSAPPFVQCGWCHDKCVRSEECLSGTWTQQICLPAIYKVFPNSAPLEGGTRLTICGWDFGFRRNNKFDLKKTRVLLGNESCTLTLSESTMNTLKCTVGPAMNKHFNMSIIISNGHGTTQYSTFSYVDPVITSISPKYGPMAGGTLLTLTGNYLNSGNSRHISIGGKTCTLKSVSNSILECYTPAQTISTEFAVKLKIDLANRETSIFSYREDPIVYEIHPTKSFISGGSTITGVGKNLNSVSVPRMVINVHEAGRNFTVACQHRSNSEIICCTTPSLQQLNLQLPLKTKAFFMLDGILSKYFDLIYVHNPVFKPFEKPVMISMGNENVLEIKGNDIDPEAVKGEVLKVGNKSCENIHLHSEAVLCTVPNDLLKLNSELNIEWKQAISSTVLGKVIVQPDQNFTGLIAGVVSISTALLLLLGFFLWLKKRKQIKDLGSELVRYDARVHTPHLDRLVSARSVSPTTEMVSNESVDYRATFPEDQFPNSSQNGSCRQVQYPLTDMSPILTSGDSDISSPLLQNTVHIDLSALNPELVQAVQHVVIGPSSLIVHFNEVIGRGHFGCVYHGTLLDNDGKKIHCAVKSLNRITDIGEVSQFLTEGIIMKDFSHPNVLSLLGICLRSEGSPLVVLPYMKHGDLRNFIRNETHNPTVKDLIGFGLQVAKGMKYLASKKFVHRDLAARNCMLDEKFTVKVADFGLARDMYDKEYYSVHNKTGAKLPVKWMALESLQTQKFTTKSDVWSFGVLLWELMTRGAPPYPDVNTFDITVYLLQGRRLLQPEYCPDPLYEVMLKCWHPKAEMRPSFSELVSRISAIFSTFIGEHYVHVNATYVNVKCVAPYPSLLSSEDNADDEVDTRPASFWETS

Row | SMILES | IC50 (c-MET) | IC50 (AXL) | IC50 (MER)
1 | CN1CCC(CC#Cc2c(Oc3ccc(NC(=O)c4c[nH]c(=O)n(-c5ccc(F)cc5)c4=O)cc3F)ccnc2N)CC1 [Example 54, N-(4-(2-amino-3-(3-(1-methylpiperidin-4-yl)prop-1-ynyl)pyridin-4-yloxy)-3-fluorophenyl)-3-(4-fluorophenyl)-2,4-dioxo-1,2,3,4-tetrahydropyrimidine-5-carboxamide] | < 10 nM | < 10 nM | < 100 nM
2 | CN1CCC(CC#Cc2c(Oc3ccc(NC(=O)c4nn(C)c(=O)n(-c5ccc(F)cc5)c4=O)cc3F)ccnc2N)CC1 [Example 45, N-(4-((2-amino-3-(3-(1-methylpiperidin-4-yl)prop-1-yn-1-yl)pyridin-4-yl)oxy)-3-fluorophenyl)-4-(4-fluorophenyl)-2-methyl-3,5-dioxo-2,3,4,5-tetrahydro-1,2,4-triazine-6-carboxamide] | < 1000 nM | < 100 nM | < 100 nM
3 | CC(C)n1cc(C(=O)Nc2ccc(Oc3ccnc(N)c3C#N)c(F)c2)c(=O)n(-c2ccc(F)cc2)c1=O [Example 5, N-(4-(2-amino-3-cyanopyridin-4-yloxy)-3-fluorophenyl)-3-(4-fluorophenyl)-1-isopropyl-2,4-dioxo-1,2,3,4-tetrahydropyrimidine-5-carboxamide] | < 10 nM | < 10 nM | < 10 nM
4 | CC(C)n1cc(C(=O)Nc2ccc(Oc3ccnc(N)c3C#Cc3ccccn3)c(F)c2)c(=O)n(-c2ccc(F)cc2)c1=O [Example 9, N-(4-(2-amino-3-(pyridin-2-ylethnyl)pyridin-4-yloxy)-3-fluorophenyl)-3-(4-fluorophenyl)-1-isopropyl-2,4-dioxo-1,2,3,4-tetrahydropyrimidine-5-carboxamide] | < 10 nM | < 10 nM | < 100 nM
5 | CCCn1cc(C#Cc2c(Oc3ccc(NC(=O)c4cn(C(C)C)c(=O)n(-c5ccc(F)cc5)c4=O)cc3F)ccnc2N)cn1 [Example 13, N-(4-(2-amino-3-((1-propyl-1H-pyrazol-4-yl)ethynyl)pyridin-4-yloxy)-3-fluorophenyl)-3-(4-fluorophenyl)-1-isopropyl-2,4-dioxo-1,2,3,4-tetrahydropyrimidine-5-carboxamide] | < 1000 nM | < 10 nM | < 10 nM
6 | Cc1nc(Cn2cc(C(=O)Nc3ccc(Oc4ccnc(N)c4C#CCC4CCNCC4)c(F)c3)c(=O)n(-c3ccc(F)cc3)c2=O)cs1 [Example 44, N-(4-((2-amino-3-(3-(piperidin-4-yl)prop-1-yn-1-yl)pyridin-4-yl)oxy)-3-fluorophenyl)-3-(4-fluorophenyl)-1-((2-methylthiazol-4-yl)methyl)-2,4-dioxo-1,2,3,4-tetrahydropyrimidine-5-carboxamide] | < 10 nM | < 10 nM | < 10 nM
7 | CC(C)n1cc(C(=O)Nc2ccc(Oc3ccnc(N)c3C#CC(C)(C)N3CCOCC3)c(F)c2)c(=O)n(-c2ccc(F)cc2)c1=O [Example 25, N-(4-(2-amino-3-(3-methyl-3-morpholinobut-1-ynyl)pyridin-4-yloxy)-3-fluorophenyl)-3-(4-fluorophenyl)-1-isopropyl-2,4-dioxo-1,2,3,4-tetrahydropyrimidine-5-carboxamide] | < 10 nM | < 10 nM | < 10 nM
8 | CC(C)n1cc(C(=O)Nc2ccc(Oc3ccnc(N)c3C#CCN3CCN(C)CC3)c(F)c2)c(=O)n(-c2ccc(F)cc2)c1=O [Example 26, N-(4-(2-amino-3-(3-(4-methylpiperazin-1-yl)prop-1-ynyl)pyridine-4-yloxy)-3-fluorophenyl)-3-(4-fluorophenyl)-1-isopropyl-2,4-dioxo-1,2,3,4-tetrahydropyrimidine-5-carboxamide] | < 10 nM | < 10 nM | < 10 nM
9 | CC(C)N1CCC(CC#Cc2c(Oc3ccc(NC(=O)c4cn(C(C)C)c(=O)n(-c5ccc(F)cc5)c4=O)cc3F)ccnc2N)CC1 [Example 29, N-(4-(2-amino-3-(3-(1-isopropylpiperidin-4-yl)prop-1-ynyl)pyridin-4-yloxy)-3-fluorophenyl)-3-(4-fluorophenyl)-1-isopropyl-2,4-dioxo-1,2,3,4-tetrahydropyrimidine-5-carboxamide] | < 10 nM | < 10 nM | < 10 nM
10 | CN1CCN(C(C)(C)C#Cc2c(Oc3ccc(NC(=O)c4cn(C5CCOCC5)c(=O)n(-c5ccc(F)cc5)c4=O)cc3F)ccnc2N)CC1 [Example 57, N-(4-(2-amino-3-(3-methyl-3-(4-methylpiperazin-1-yl)but-1-ynyl)pyridin-4-yloxy)-3-fluorophenyl)-3-(4-fluorophenyl)-2,4-dioxo-1-(tetrahydro-2H-pyran-4-yl)-1,2,3,4-tetrahydropyrimidine-5-carboxamide] | < 100 nM | < 100 nM | < 10 nM
11 | CN(C)C(=O)Cn1cc(C(=O)Nc2ccc(Oc3ccnc(N)c3C#CCN3CCOCC3)c(F)c2)c(=O)n(-c2ccc(F)cc2)c1=O [Example 34, N-(4-((2-amino-3-(3-morpholinoprop-1-yn-1-yl)pyridin-4-yl)oxy)-3-fluorophenyl)-1-(2-(dimethylamino)-2-oxoethyl)-3-(4-fluorophenyl)-2,4-dioxo-1,2,3,4-tetrahydropyrimidine-5-carboxamide] | < 10000 nM | < 1000 nM | < 100 nM
12 | CC(C)(C#Cc1c(Oc2ccc(NC(=O)c3cn(C4CCOCC4)c(=O)n(-c4ccc(F)cc4)c3=O)cc2F)ccnc1N)N1CCNCC1 [Example 58, N-(4-(2-amino-3-(3-methyl-3-(piperazin-1-yl)but-1-ynyl)pyridin-4-yloxy)-3-fluorophenyl)-3-(4-fluorophenyl)-2,4-dioxo-1-(tetrahydro-2H-pyran-4-yl)-1,2,3,4-tetrahydropyrimidine-5-carboxamide] | < 100 nM | < 100 nM | < 10 nM
